Where a name gives a salt, the structure may show the parent alone. Read-outs that look alike come from different tables or passages of the source.
How the values were obtained:
[1] = test system: human small lung cancer cell line H2171; assay: Cell Viability Assay (ATPlite); format: cell-based; conditions: read-out: H2171 Activity
Summary of the method: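 Viability readout was ATPlite luminescence, taken after 3 days' incubation at 37° C. Human SCLC H2171 cells (20,000 cells/mL) received compound right after plating, as a 10-point dose response.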

c-Myc/Max/Ebox DNA = molecular target: T1, c-Myc/Max/Ebox DNA (Homo sapiens, UniProt P01106); assay: c-Myc/Max/Ebox DNA AlphaScreen Assay; format: binding; conditions: calculated IC50 class
T1 construct: his6 (cleaved yes)
Summary of the method: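 Compounds were preincubated with free c-Myc (20 nM), biotinylated single-Ebox DNA (10 nM) and Ni acceptor beads before his6-Max (5 nM) and streptavidin donor beads were added. Buffer was 50 mM HEPES pH 8.0, 150 mM NaCl, BSA, Tween20, glycogen and DTT, with DMSO ≤2%. After 2 h incubation, AlphaScreen signal was read at 680 nm excitation and 520–620 nm emission.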

[2] = Homo sapiens, NCI-H2171, 72 h, Table 2, compounds of FIG. 1, H2171 cells, three days, ATPlite, calculated IC50 class
[3] = Table 2, compounds of FIG. 1, H2171 cells, three days, ATPlite, calculated IC50 class
[4] = Homo sapiens, NCI-H2171, 72 h, Table 3, compounds of FIG. 2, H2171 cells, three days, ATPlite, calculated IC50 class

T1 sequence (P01106 whole entry): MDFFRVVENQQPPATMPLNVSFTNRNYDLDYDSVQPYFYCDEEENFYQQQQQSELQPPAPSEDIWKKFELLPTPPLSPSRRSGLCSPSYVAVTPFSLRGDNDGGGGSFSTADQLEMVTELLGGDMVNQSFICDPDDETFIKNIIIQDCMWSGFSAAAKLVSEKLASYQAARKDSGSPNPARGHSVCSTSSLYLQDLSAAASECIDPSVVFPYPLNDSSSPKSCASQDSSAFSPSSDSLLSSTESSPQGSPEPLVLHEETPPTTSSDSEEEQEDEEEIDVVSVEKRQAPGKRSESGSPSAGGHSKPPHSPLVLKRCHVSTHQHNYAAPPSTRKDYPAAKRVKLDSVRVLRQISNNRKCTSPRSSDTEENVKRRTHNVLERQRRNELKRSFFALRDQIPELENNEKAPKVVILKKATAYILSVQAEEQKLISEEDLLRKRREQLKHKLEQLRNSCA

SMILES	IC50 [1, 2] [nM]	IC50 (c-Myc/Max/Ebox DNA; Table 2, compounds of FIG. 1) [nM]	other results
O=C(CCN[C@@H]1C[C@H]2CNC[C@H]2C1)Nc1sc2c(c1-c1nc3cc(-c4ccncc4)ccc3s1)CCNC2 [Compound 606, 3-(((3aR,5s,6aS)-octahydrocyclopenta[c]pyrrol-5-yl)amino)-N-(3-(5-(pyridin-4-yl)benzo[d]thiazol-2-yl)-4,5,6,7-tetrahydrothieno[2,3-c]pyridin-2-yl)propanamide]	300 to 1000	< 300	
COCCNCCC(=O)Nc1sc2c(c1-c1nc3cc(-c4cccnc4)ccc3s1)CC(C)NC2C (single isomer, unassigned) [Compound 524, N-(5,7-Dimethyl-3-(5-(pyridin-3-yl)benzo[d]thiazol-2-yl)-4,5,6,7-tetrahydrothieno[2,3-c]pyridin-2-yl)-3-((2-methoxyethyl)amino)propanamide]	300 to 1000	< 300	
CCC(C)N(C)CCC(=O)Nc1sc2c(c1-c1nc3ccccc3s1)CCN(C(C)C)C2 (stereo not drawn) [Compound 577, N-(3-(benzo[d]thiazol-2-yl)-6-isopropyl-4,5,6,7 tetrahydrothieno[2,3-c]pyridin-2-yl)-3-(sec-butyl(methyl)amino)propanamide]		> 10000	IC50 [1, 3]: > 10000 nM
COCCNCCC(=O)Nc1sc2c(c1-c1nc3cc(-c4cnn(C(C)C)c4)ccc3s1)CCNC2 [compound 465]	< 300	< 300	
COCCNCCC(=O)Nc1sc2c(c1-c1nc3cc(-c4cncc(F)c4)ccc3s1)CCNC2 [compound 337]	< 300	< 300	
CC[C@H](C)NCCC(=O)Nc1sc2c(c1-c1nc3cc(C(F)(F)F)ccc3s1)CCNC2 [Compound 152, (S)-3-(sec-butylamino)-N-(3-(5-(trifluoromethyl)benzo[d]thiazol-2-yl)-4,5,6,7-tetrahydrothieno[2,3-c]pyridin-2-yl)propanamide]	< 300	< 300	
CCN(CC)c1ccc(-c2ccc3sc(-c4c(NC(=O)CCNCCOC)sc5c4CCNC5)nc3c2)cc1 [compound 365]	< 300	< 300	
COCCNCCC(=O)Nc1sc2c(c1-c1nc3ccc(-c4cccnc4)cc3s1)CC(C)NC2C (single isomer, unassigned) [Compound 520, N-(5,7-Dimethyl-3-(6-(pyridin-3-yl)benzo[d]thiazol-2-yl)-4,5,6,7-tetrahydrothieno[2,3-c]pyridin-2-yl)-3-((2-methoxyethyl)amino)propanamide]		1000 to 10000	IC50 [1, 3]: 300 to 1000 nM
COC(=O)c1ccc2sc(-c3c(NC(C)=O)sc4c3CCNC4)nc2c1 [Compound 229, Methyl 2-(2-acetamido-4,5,6,7-tetrahydrothieno[2,3-c]pyridin-3-yl)benzo[d]thiazole-5-carboxylate]			IC50 [1, 4]: < 300 nM; IC50 (c-Myc/Max/Ebox DNA; Table 3, compounds of FIG. 2): 300 to 1000 nM
CCC1Cc2c(sc(NC(=O)CCNCCOC)c2-c2nc3ccccc3s2)C(CC)N1 (single isomer, unassigned) [Compound 537, N-(3-(Benzo[d]thiazol-2-yl)-5,7-diethyl-4,5,6,7-tetrahydrothieno[2,3-c]pyridin-2-yl)-3-((2-methoxyethyl)amino)propanamide]		> 10000	IC50 [1, 3]: < 300 nM
CC(=O)Nc1sc2c(c1-c1nc3cc4c(cc3s1)OCO4)CCNC2 [Compound 237, N-(3-([1,3]Dioxolo[4′,5′:4,5]benzo[1,2-d]thiazol-6-yl)-4,5,6,7-tetrahydrothieno[2,3-c]pyridin-2-yl)acetamide]			IC50 [1, 4]: 300 to 1000 nM; IC50 (c-Myc/Max/Ebox DNA; Table 3, compounds of FIG. 2): 1000 to 10000 nM
CCN1CCc2c(sc(NC(C)=O)c2-c2nc3ccccc3s2)C1 [Compound 201, N-(3-(benzo[d]thiazol-2-yl)-6-ethyl-4,5,6,7-tetrahydrothieno[2,3-c]pyridin-2-yl)acetamide]			IC50 ([1]; Homo sapiens, NCI-H2171, 72 h): 1000 to 10000 nM; IC50 (c-Myc/Max/Ebox DNA; Table 3, compounds of FIG. 2): 1000 to 10000 nM
CC[C@H](C)NCCC(=O)Nc1sc2c(c1-c1nc3cc(F)ccc3s1)CCNC2 [Compound 156, (S)-3-(sec-butylamino)-N-(3-(5-fluorobenzo[d]thiazol-2-yl)-4,5,6,7-tetrahydrothieno[2,3-c]pyridin-2-yl)propanamide hydrochloride]	< 300	< 300	
CC[C@H](C)NCCC(=O)Nc1sc2c(c1-c1nc3ccccc3s1)CCN(C1CC1)C2 [Compound 596, (S)—N-(3-(benzo[d]thiazol-2-yl)-6-cyclopropyl-4,5,6,7-tetrahydrothieno[2,3-c]pyridin-2-yl)-3-(sec-butylamino)propanamide]	300 to 1000	> 10000	
COCCNCCC(=O)Nc1sc2c(c1-c1nc3ccc(-c4cccnc4)cc3s1)CC(C)NC2C (single isomer, unassigned) [Compound 527, N-(5,7-Dimethyl-3-(6-(pyridin-3-yl)benzo[d]thiazol-2-yl)-4,5,6,7-tetrahydrothieno[2,3-c]pyridin-2-yl)-3-((2-methoxyethyl)amino)propanamide]		300 to 1000	IC50 [1, 3]: < 300 nM
CC[C@H](C)NCCC(=O)Nc1sc2c(c1-c1nc3cc(C(F)(F)F)ccc3s1)CC(C)NC2C (single isomer, unassigned) [Compound 586]		> 10000	IC50 [1, 3]: < 300 nM
CC(C)NCCC(=O)Nc1sc2c(c1-c1nc3cc(C(=O)Nc4ccccc4)ccc3s1)CCNC2 [Compound 505, 2-(2-(3-(Isopropylamino)propanamido)-4,5,6,7-tetrahydrothieno[2,3-c]pyridin-3-yl)-N-phenylbenzo[d]thiazole-5-carboxamide]	< 300	1000 to 10000	

SMILES	IC50 [1, 2] [nM]	IC50 (c-Myc/Max/Ebox DNA; Table 2, compounds of FIG. 1) [nM]	other results
COCCNCCC(=O)Nc1sc2c(c1-c1nc3cc(-c4cnn(C)c4)ccc3s1)CC(C)NC2C (single isomer, unassigned) [Compound 566, N-(5,7-Dimethyl-3-(5-(1-methyl-1H-pyrazol-4-yl)benzo[d]thiazol-2-yl)-4,5,6,7-tetrahydrothieno[2,3-c]pyridin-2-yl)-3-((2-methoxyethyl)amino)propanamide]		1000 to 10000	IC50 [1, 3]: < 300 nM
COCCNCCC(=O)Nc1sc2c(c1-c1nc3cc(F)ccc3s1)CC(C)NC2C (single isomer, unassigned) [Compound 547, N-(3-(5-Fluorobenzo[d]thiazol-2-yl)-5,7-dimethyl-4,5,6,7-tetrahydrothieno[2,3-c]pyridin-2-yl)-3-((2-methoxyethyl)amino)propanamide]		1000 to 10000	IC50 [1, 3]: < 300 nM
COCCNCCC(=O)Nc1sc2c(c1-c1nc3cc(-c4ccc(C#N)nc4)ccc3s1)CCNC2 [compound 405]	< 300	< 300	
COCCNCCC(=O)Nc1sc2c(c1-c1nc3ccc(-c4cn[nH]c4)cc3s1)CCNC2 [compound 339]	< 300	< 300	
COCCNCCC(=O)Nc1sc2c(c1-c1nc3ccc(-c4cccnc4)cc3s1)CC(C)NC2C (single isomer, unassigned) [Compound 528, N-(5,7-Dimethyl-3-(6-(pyridin-3-yl)benzo[d]thiazol-2-yl)-4,5,6,7-tetrahydrothieno[2,3-c]pyridin-2-yl)-3-((2-methoxyethyl)amino)propanamide]		300 to 1000	IC50 [1, 3]: 300 to 1000 nM
CC[C@H](C)NCCC(=O)Nc1sc2c(c1-c1nc3cc(C(F)(F)F)ccc3s1)CC(C)NC2C (single isomer, unassigned) [Compound 587]		> 10000	IC50 [1, 3]: 300 to 1000 nM
CC(=O)Nc1sc2c(c1-c1nc3ccccc3s1)CCC(NC1CCOCC1)C2 (stereo not drawn) [Compound 231, N-(3-(benzo[d]thiazol-2-yl)-6-((tetrahydro-2H-pyran-4-yl)amino)-4,5,6,7-tetrahydrobenzo[b]thiophen-2-yl)acetamide]			IC50 [1, 4]: < 300 nM; IC50 (c-Myc/Max/Ebox DNA; Table 3, compounds of FIG. 2): 1000 to 10000 nM
COCCNCCC(=O)Nc1sc2c(c1-c1nc3cc(-c4cnoc4)ccc3s1)CCNC2 [compound 481]	< 300	< 300	
COCCNCCC(=O)Nc1sc2c(c1-c1nc3cc(-c4ccnc(N)c4)ccc3s1)CCNC2 [compound 433]	< 300	< 300	
COCCNCCC(=O)Nc1sc2c(c1-c1nc3ccc(-c4cnoc4)cc3s1)CCNC2 [compound 469]	< 300	< 300	
COCCNCCC(=O)Nc1sc2c(c1-c1nc3ccc(-c4ccnc(F)c4)cc3s1)CCNC2 [compound 456]	< 300	< 300	
CC[C@H](C)NCCC(=O)Nc1sc2c(c1-c1nc3cc(-c4ccncc4)ccc3s1)CCNC2 [Compound 579, (S)-3-(sec-butylamino)-N-(3-(5-(pyridin-4-yl)benzo[d]thiazol-2-yl)-4,5,6,7-tetrahydrothieno[2,3-c]pyridin-2-yl)Propanamide]	< 300	< 300	
COc1ccc2sc(-c3c(NC(=O)CCNC(C)C)sc4c3CCNC4)nc2c1 [compound 316]	< 300	< 300	
COCCNCCC(=O)Nc1sc2c(c1-c1nc3cc(C4=CCNCC4)ccc3s1)CCNC2 [compound 497]	< 300	< 300	
CC[C@@H](C)NCCC(=O)Nc1sc2c(c1-c1nc3cc(F)ccc3s1)CCNC2 [Compound 185, (R)-3-(sec-butylamino)-N-(3-(5-fluorobenzo[d]thiazol-2-yl)-4,5,6,7-tetrahydrothieno[2,3-c]pyridin-2-yl)propanamide]	< 300	< 300	
O=C(CCNCCO)Nc1sc2c(c1-c1nc3ccccc3s1)CCNC2 [Compound 310, N-(3-(Benzo[d]thiazol-2-yl)-4,5,6,7-tetrahydrothieno[2,3-c]pyridin-2-yl)-3-((2-hydroxyethyl)amino)propanamide]	< 300	< 300	

Reference: patent US10787444B2, “Compounds for the modulation of myc activity” (Syros Pharmaceuticals, Inc., priority 2015, dated 2020)
